From patent US20250345492A1, “AN ANTIBACTERIAL POLYPEPTIDE COMPOUND, A MEDICAL DEVICE, HYDROGEL AND USE THEREOF” (priority 2020, published 2025)
Ends that are not written are not given here.

Tests used:
[1] = system: Bacillus subtilis (ATCC 23857); details: ATCC 23857
From the text: (§1) With respect to the determination of antibacterial activity and antifungal activity of the antibacterial polypeptide compounds, the bacterial strains employed included: E. coli (ATCC 25922), E. coli (ATCC 43837), Pseudomonas aeruginosa (ATCC 27853), Klebsiella pneumoniae (ATCC 700603), Cronobacter sakazakii (ATCC 29544), Staphylococcus aureus (ATCC 29213), Bacillus subtilis (ATCC 23857) and Staphylococcus epidermidis (ATCC 12228); and the fungal strains employed included Candida albicans (ATCC 14053), Candida glabrata (ATCC 2001), Candida parapsilosis (ATCC 22019), Candida tropicalis (ATCC 750) and Candida krusei (ATCC 6258), all of which were standard strains from American Type Culture Collection. In addition, drug-resistant strains S-1a, S-2a, S-3a, S-4a, E-1b, E-2b, E-3b, E-4b, E-5b, P-1c, P-2c, P-3c, P-4c, P-5c, and clinically isolated fungal strains Candida glabrata 2-1 and Candida albicans 14-1, 14-2 and 14-3 were employed, all which were clinically isolated.
(§2) Simply, a proper amount of the cryopreserved bacterium or fungus was added to fresh MH/SD medium, and cultured on a shaker overnight at 180 rpm at 37° C. The obtained cells were seeded again and cultured on a shaker for 4-5 hours to obtain cells in logarithmic phase. The resulting cells were added to a 96-well plate (1×10^5 CFU/ml, 100 μL/well), and then 100 μL of polypeptide with different concentrations (1-256 μM) twice the final concentrations was added to corresponding well according to the 2-fold serial dilution method. The fresh medium was used as a negative control, which was prepared in triplicate for each concentration. After dosing, the 96-well plate was placed in an incubator at constant 37° C. and humidity for 12 hours to observe the results. According to naked eye observations, the concentration of the compound in the first transparent well following the turbid wells was recorded as the MIC of the compound, namely, the MIC value of the compound to the bacterium or fungus.

C. albicans ATCC14053 = details: ATCC14053
From the text: as §1, §2

C. glabrata ATCC22019 = details: ATCC22019
From the text: as §1, §2

C. krusei ATCC6258 = details: ATCC6258
From the text: as §1, §2

C. parapsilosis ATCC2001 = details: ATCC2001
From the text: as §1, §2

C. tropicalis ATCC750 = details: ATCC750
From the text: as §1, §2

[2] = system: Cronobacter sakazakii (ATCC 29544); details: ATCC 29544
From the text: as §1, §2

[3] = system: E-1b, clinical isolated drug-resistant strain ESBL; details: strain E-1b (ESBL)
From the text: as §1, §2

[4] = system: E-2b, clinical isolated drug-resistant strain ESBL; details: strain E-2b (ESBL)
From the text: as §1, §2

[5] = system: E-3b, clinical isolated drug-resistant strain ESBL; details: strain E-3b (ESBL)
From the text: as §1, §2

[6] = system: E-4b, clinical isolated drug-resistant strain ESBL; details: strain E-4b (ESBL)
From the text: as §1, §2

[7] = system: E-5b, clinical isolated drug-resistant strain ESBL; details: strain E-5b (ESBL)
From the text: as §1, §2

E. coli (ATCC 25922) = details: ATCC 25922
From the text: as §1, §2

[8] = system: P-1c, clinical isolated drug-resistant strain PA; details: strain P-1c (PA)
From the text: as §1, §2

[9] = system: P-2c, clinical isolated drug-resistant strain PA; details: strain P-2c (PA)
From the text: as §1, §2

[10] = system: P-3c, clinical isolated drug-resistant strain PA; details: strain P-3c (PA)
From the text: as §1, §2

[11] = system: P-4c, clinical isolated drug-resistant strain PA; details: strain P-4c (PA)
From the text: as §1, §2

[12] = system: P-5c, clinical isolated drug-resistant strain PA; details: strain P-5c (PA)
From the text: as §1, §2

[13] = system: Pseudomonas aeruginosa (ATCC 27853); details: standard strain
From the text: as §1, §2

[14] = system: S-1a, clinical isolated drug-resistant strain MRSA; details: strain S-1a (MRSA)
From the text: as §1, §2

[15] = system: S-2a, clinical isolated drug-resistant strain MRSA; details: strain S-2a (MRSA)
From the text: as §1, §2

[16] = system: S-3a, clinical isolated drug-resistant strain MRSA; details: strain S-3a (MRSA)
From the text: as §1, §2

[17] = system: S-4a, clinical isolated drug-resistant strain MRSA; details: strain S-4a (MRSA)
From the text: as §1, §2

[18] = system: Staphylococcus aureus (ATCC 29213); details: ATCC 29213
From the text: as §1, §2

[19] = system: Staphylococcus epidermidis (ATCC 12228); details: ATCC 12228
From the text: as §1, §2

[20] = system: human cervical cancer cell Hela; experiment: Cytotoxicity, MTT colorimetry; assay type: cell-based
Experimental: (§3) For cytotoxicity determination, the MTT colorimetry was used to evaluate the effects of the compounds on the proliferation of human cervical cancer cell Hela, human embryonic renal epithelial cell HEK293 and mouse mononuclear macrophage RAW264.7.
(§4) Taking compounds 2, 8, 9, 13 and 15 of the present invention as examples, the cytotoxicity of the antibacterial polypeptide compounds was analyzed. Three cell lines were employed for the present invention, namely human cervical cancer cell Hela, human embryonic renal epithelial cell HEK293 and mouse mononuclear macrophage RAW264.7. Hela cells were cultured in RPMI 1640 medium with 10% newborn calf serum, HEK293 cells and RAW264.7 cells were cultured in DMEM medium with 10% fetal bovine serum. Simply, cells (1×10^4 cells/well) were inoculated to a 96-well plate and incubated in an incubator set to 5% CO2 at 37° C. After 24 hours, compounds of different concentrations were added and incubated in the 5% CO2 incubator. After 24 hours, 20 μL of MTT solution with a concentration of 5 mg/mL was added to each well and incubated for 4 hours. After that, the medium was removed with a pipet, and 150 μL of DMSO added to dissolve the purple-blue formazan crystals. The solution was shaken in an oscillator for 5 mins before detecting the absorbance value at 570 nm using the ELISA reader, and then the survival rate was calculated with the formula: (OD dosing group/OD control group)×100% (n=3).

[21] = system: human embryonic renal epithelial cell HEK293; experiment: Cytotoxicity, MTT colorimetry; assay type: cell-based
Experimental: as §3, §4

[22] = system: mouse mononuclear macrophage RAW264.7; experiment: Cytotoxicity, MTT colorimetry; assay type: cell-based
Experimental: as §3, §4

Acute toxicity in mice = experiment: Acute toxicity in mice; parameters: species or system Kunming mice; details: mouse, in vivo, ip, intraperitoneal injection, Karber method
Experimental: Acute toxicity of the compounds was determined by measuring the acute toxicity in mice with the compounds.
Taking compounds 2, 8, 9, 13 and 15 of the present invention as examples, […]. The mice used in this test were Kunming mice, which were placed in constant-temperature environment (22±1° C.) and could freely obtain water and food. Simply, 132 healthy Kunming mice were randomly divided into 11 groups, with 12 mice in each group (half male and half female), wherein, 5 groups were intraperitoneally injected with 0.2 ml of the compounds of different doses (100-1000 mg/kg), and the control group was intraperitoneally injected with normal saline. In this experiment, melittin was used as a reference control, and the other 5 groups were intraperitoneally injected with melittin of different doses (10-32 mg/kg). The state of mice was observed and recorded after 2 hours of administration, and then observed twice a day for 14 days, and the survival rates of the mice were recorded.

Which results are given for PWRLRLHL-NH2 [Compound 13]?
MIC B. subtilis ATCC23857 [1]: 8 µM; MIC C. albicans ATCC14053 (C. albicans ATCC14053): 32 µM; MIC C. glabrata ATCC22019 (C. glabrata ATCC22019): 8 µM; MIC C. krusei ATCC6258 (C. krusei ATCC6258): 32 µM; MIC C. parapsilosis ATCC2001 (C. parapsilosis ATCC2001): 8 µM; MIC C. tropicalis ATCC750 (C. tropicalis ATCC750): 8 µM; MIC C. sakazakii ATCC29544 [2]: 8 µM; MIC [3]: 8 µM; MIC [4]: 8 µM; MIC [5]: 4 µM; MIC [6]: 8 µM; MIC [7]: 4 µM; MIC C. coli ATCC25922 (E. coli (ATCC 25922)): 8 µM; MIC [8]: 8 µM; MIC [9]: 4 µM; MIC [10]: 4 µM; MIC [11]: 4 µM; MIC [12]: 4 µM; MIC P. aerugmosa ATCC27853 [13]: 4 µM; MIC [14]: 32 µM; MIC [15]: 32 µM; MIC [16]: 32 µM; MIC [17]: 32 µM; MIC S. aureus ATCC29213 [18]: 32 µM; MIC S. epidermidis ATCC12228 [19]: 16 µM; effect on proliferation (inhibitory activity) [20]: no inhibitory activity; effect on proliferation (inhibitory activity) [21]: no inhibitory activity; effect on proliferation (inhibitory activity) [22]: no inhibitory activity; LD50 (Acute toxicity in mice): > 1000 mg/kg

Which LD50 at 14 days (Acute toxicity in mice; both sexes, Kunming) does the source give for `CC[C@H](C)[C@H](NC(=O)CN)C(=O)NCC(=O)N[C@@H](C)C(=O)N[C@H](C(=O)N[C@@H](CC(C)C)C(=O)N[C@@H](CCCCN)C(=O)N[C@H](C(=O)N[C@@H](CC(C)C)C(=O)N[C@H](C(=O)N[C@H](C(=O)NCC(=O)N[C@@H](CC(C)C)C(=O)N1CCC[C@H]1C(=O)N[C@@H](C)C(=O)N[C@@H](CC(C)C)C(=O)N[C@H](C(=O)N[C@@H](CO)C(=O)N[C@@H](Cc1c[nH]c2ccccc12)C(=O)N[C@H](C(=O)N[C@@H](CCCCN)C(=O)N[C@@H](CCCNC(=N)N)C(=O)N[C@@H](CCCCN)C(=O)N[C@@H](CCCNC(=N)N)C(=O)N[C@@H](CCC(N)=O)C(=O)N[C@@H](CCC(N)=O)C(N)=O)[C@@H](C)CC)[C@@H](C)CC)[C@@H](C)O)[C@@H](C)O)C(C)C)C(C)C` [melittin magainin, melittin, reference compound] here?
Its LD50 at 14 days is 20 mg/kg.
